# From ChEMBL document CHEMBL1127066, “Discovery and structure-activity relationship of a series of 1-carba-1-dethiacephems exhibiting activity against methicillin-resistant Staphylococcus aureus” (J Med Chem, 1993)
# System: Escherichia coli
# Assay: In vitro evaluation of antimicrobial activity against Escherichia coli EC14 strain
# Assay type: functional
row,SMILES,MIC
1,Nc1nc(/C(=N\OCCF)C(=O)N[C@@H]2C(=O)N3C(C(=O)[O-])=C(Sc4nc5c(N)ncnc5s4)CC[C@H]23)cs1.[Na+],0.25 mg/L
2,Nc1nc(/C(=N\OCCF)C(=O)N[C@@H]2C(=O)N3C(C(=O)[O-])=C(Sc4ccncc4)CC[C@H]23)cs1.[Na+],0.06 mg/L
3,Nc1nc(/C(=N\OCCF)C(=O)N[C@@H]2C(=O)N3C(C(=O)[O-])=C(SC4=NCCS4)CC[C@H]23)cs1.[Na+],0.125 mg/L

# System: Enterobacter cloacae
# Assay: In vitro evaluation of antimicrobial activity against Enterobacter cloacae EB5 strain
# Assay type: functional
row,SMILES,MIC
1,Nc1nc(/C(=N\OCCF)C(=O)N[C@@H]2C(=O)N3C(C(=O)[O-])=C(Sc4nc5c(N)ncnc5s4)CC[C@H]23)cs1.[Na+],1 mg/L
2,Nc1nc(/C(=N\OCCF)C(=O)N[C@@H]2C(=O)N3C(C(=O)[O-])=C(Sc4ccncc4)CC[C@H]23)cs1.[Na+],0.5 mg/L
3,Nc1nc(/C(=N\OCCF)C(=O)N[C@@H]2C(=O)N3C(C(=O)[O-])=C(SC4=NCCS4)CC[C@H]23)cs1.[Na+],1 mg/L

# System: Haemophilus influenzae
# Assay: In vitro antimicrobial activity against Haemophilus influenzae C.L. strain
# Assay type: functional
row,SMILES,MIC
1,Nc1nc(/C(=N\OCCF)C(=O)N[C@@H]2C(=O)N3C(C(=O)[O-])=C(Sc4nc5c(N)ncnc5s4)CC[C@H]23)cs1.[Na+],0.03 mg/L
2,Nc1nc(/C(=N\OCCF)C(=O)N[C@@H]2C(=O)N3C(C(=O)[O-])=C(Sc4ccncc4)CC[C@H]23)cs1.[Na+],0.015 mg/L
3,Nc1nc(/C(=N\OCCF)C(=O)N[C@@H]2C(=O)N3C(C(=O)[O-])=C(SC4=NCCS4)CC[C@H]23)cs1.[Na+],< 0.008 mg/L

# System: Klebsiella
# Assay: In vitro antimicrobial activity against Klebsiella X26 strain
# Assay type: functional
row,SMILES,MIC
1,Nc1nc(/C(=N\OCCF)C(=O)N[C@@H]2C(=O)N3C(C(=O)[O-])=C(Sc4nc5c(N)ncnc5s4)CC[C@H]23)cs1.[Na+],0.03 mg/L
2,Nc1nc(/C(=N\OCCF)C(=O)N[C@@H]2C(=O)N3C(C(=O)[O-])=C(Sc4ccncc4)CC[C@H]23)cs1.[Na+],0.015 mg/L
3,Nc1nc(/C(=N\OCCF)C(=O)N[C@@H]2C(=O)N3C(C(=O)[O-])=C(SC4=NCCS4)CC[C@H]23)cs1.[Na+],0.015 mg/L

# System: Pseudomonas aeruginosa
# Assay: Antimicrobial activity against Pseudomonas PS18 strain
# Assay type: functional
row,SMILES,MIC
1,Nc1nc(/C(=N\OCCF)C(=O)N[C@@H]2C(=O)N3C(C(=O)[O-])=C(Sc4nc5c(N)ncnc5s4)CC[C@H]23)cs1.[Na+],64 mg/L
2,Nc1nc(/C(=N\OCCF)C(=O)N[C@@H]2C(=O)N3C(C(=O)[O-])=C(Sc4ccncc4)CC[C@H]23)cs1.[Na+],64 mg/L
3,Nc1nc(/C(=N\OCCF)C(=O)N[C@@H]2C(=O)N3C(C(=O)[O-])=C(SC4=NCCS4)CC[C@H]23)cs1.[Na+],64 mg/L

# System: Pseudomonas aeruginosa
# Assay: In vitro antimicrobial activity against Pseudomonas X239 strain
# Assay type: functional
row,SMILES,MIC
1,Nc1nc(/C(=N\OCCF)C(=O)N[C@@H]2C(=O)N3C(C(=O)[O-])=C(Sc4nc5c(N)ncnc5s4)CC[C@H]23)cs1.[Na+],> 128 mg/L
2,Nc1nc(/C(=N\OCCF)C(=O)N[C@@H]2C(=O)N3C(C(=O)[O-])=C(Sc4ccncc4)CC[C@H]23)cs1.[Na+],16 mg/L
3,Nc1nc(/C(=N\OCCF)C(=O)N[C@@H]2C(=O)N3C(C(=O)[O-])=C(SC4=NCCS4)CC[C@H]23)cs1.[Na+],< 128 mg/L

# System: Staphylococcus epidermidis
# Assay: In vitro antimicrobial activity against Staphylococcus epidermidis 222 strain
# Assay type: functional
row,SMILES,MIC
1,Nc1nc(/C(=N\OCCF)C(=O)N[C@@H]2C(=O)N3C(C(=O)[O-])=C(Sc4nc5c(N)ncnc5s4)CC[C@H]23)cs1.[Na+],0.5 mg/L
2,Nc1nc(/C(=N\OCCF)C(=O)N[C@@H]2C(=O)N3C(C(=O)[O-])=C(Sc4ccncc4)CC[C@H]23)cs1.[Na+],1 mg/L
3,Nc1nc(/C(=N\OCCF)C(=O)N[C@@H]2C(=O)N3C(C(=O)[O-])=C(SC4=NCCS4)CC[C@H]23)cs1.[Na+],1 mg/L

# System: Staphylococcus epidermidis
# Assay: In vitro antimicrobial activity against Staphylococcus epidermidis 270 strain
# Assay type: functional
row,SMILES,MIC
1,Nc1nc(/C(=N\OCCF)C(=O)N[C@@H]2C(=O)N3C(C(=O)[O-])=C(Sc4nc5c(N)ncnc5s4)CC[C@H]23)cs1.[Na+],2 mg/L
2,Nc1nc(/C(=N\OCCF)C(=O)N[C@@H]2C(=O)N3C(C(=O)[O-])=C(Sc4ccncc4)CC[C@H]23)cs1.[Na+],2 mg/L
3,Nc1nc(/C(=N\OCCF)C(=O)N[C@@H]2C(=O)N3C(C(=O)[O-])=C(SC4=NCCS4)CC[C@H]23)cs1.[Na+],2 mg/L

# System: Staphylococcus aureus
# Assay: In vitro antimicrobial activity against Staphylococcus aureus S13E strain
# Assay type: functional
row,SMILES,MIC
1,Nc1nc(/C(=N\OCCF)C(=O)N[C@@H]2C(=O)N3C(C(=O)[O-])=C(Sc4nc5c(N)ncnc5s4)CC[C@H]23)cs1.[Na+],16 mg/L
2,Nc1nc(/C(=N\OCCF)C(=O)N[C@@H]2C(=O)N3C(C(=O)[O-])=C(Sc4ccncc4)CC[C@H]23)cs1.[Na+],32 mg/L
3,Nc1nc(/C(=N\OCCF)C(=O)N[C@@H]2C(=O)N3C(C(=O)[O-])=C(SC4=NCCS4)CC[C@H]23)cs1.[Na+],16 mg/L

# System: Staphylococcus aureus
# Assay: In vitro antimicrobial activity against Staphylococcus aureus X400 strain
# Assay type: functional
row,SMILES,MIC
1,Nc1nc(/C(=N\OCCF)C(=O)N[C@@H]2C(=O)N3C(C(=O)[O-])=C(Sc4nc5c(N)ncnc5s4)CC[C@H]23)cs1.[Na+],32 mg/L
2,Nc1nc(/C(=N\OCCF)C(=O)N[C@@H]2C(=O)N3C(C(=O)[O-])=C(Sc4ccncc4)CC[C@H]23)cs1.[Na+],64 mg/L
3,Nc1nc(/C(=N\OCCF)C(=O)N[C@@H]2C(=O)N3C(C(=O)[O-])=C(SC4=NCCS4)CC[C@H]23)cs1.[Na+],64 mg/L

# System: Streptococcus pneumoniae
# Assay: In vitro antimicrobial activity against Streptococcus pneumoniae PARK strain
# Assay type: functional
row,SMILES,MIC
1,Nc1nc(/C(=N\OCCF)C(=O)N[C@@H]2C(=O)N3C(C(=O)[O-])=C(Sc4nc5c(N)ncnc5s4)CC[C@H]23)cs1.[Na+],< 0.008 mg/L
2,Nc1nc(/C(=N\OCCF)C(=O)N[C@@H]2C(=O)N3C(C(=O)[O-])=C(Sc4ccncc4)CC[C@H]23)cs1.[Na+],< 0.008 mg/L
3,Nc1nc(/C(=N\OCCF)C(=O)N[C@@H]2C(=O)N3C(C(=O)[O-])=C(SC4=NCCS4)CC[C@H]23)cs1.[Na+],< 0.008 mg/L

# System: Staphylococcus aureus
# Assay: In vitro antimicrobial activity against Staphylococcus aureus X1.1 strain
# Assay type: functional
row,SMILES,MIC
1,Nc1nc(/C(=N\OCCF)C(=O)N[C@@H]2C(=O)N3C(C(=O)[O-])=C(Sc4nc5c(N)ncnc5s4)CC[C@H]23)cs1.[Na+],0.125 mg/L
2,Nc1nc(/C(=N\OCCF)C(=O)N[C@@H]2C(=O)N3C(C(=O)[O-])=C(Sc4ccncc4)CC[C@H]23)cs1.[Na+],0.5 mg/L
3,Nc1nc(/C(=N\OCCF)C(=O)N[C@@H]2C(=O)N3C(C(=O)[O-])=C(SC4=NCCS4)CC[C@H]23)cs1.[Na+],0.5 mg/L
